# Experimental data from PubChem BioAssay (NCI).
#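 Interpolation was linear, between the two tested concentrations surrounding the appropriate level; five concentrations were tested over 48 hours in 96-well plates. TGI marks complete inhibition of growth.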
# Legend:
# Assay in all cases: NCI tumour cell line growth inhibition, 48 h
# [1] = system: T-47D breast
# [2] = system: K-562 leukemia
# [3] = system: RXF 393 renal
# [4] = system: HT29 colon
# [5] = system: SF-268 CNS
# [6] = system: UO-31 renal
# [7] = system: MCF7 breast
# [8] = system: OVCAR-3 ovarian
# [9] = system: M14 melanoma
# [10] = system: HCT-116 colon
# [11] = system: HS 578T breast
# [12] = system: HOP-92 NSCLC
# [13] = system: IGROV1 ovarian
# [14] = system: MOLT-4 leukemia
# [15] = system: MDA-MB-231 breast
# [16] = system: MALME-3M melanoma
# [17] = system: UACC-62 melanoma
# [18] = system: ACHN renal
# [19] = system: SK-OV-3 ovarian
# [20] = system: SF-539 CNS
# [21] = system: HL-60(TB) leukemia
# [22] = system: OVCAR-8 ovarian
# [23] = system: EKVX NSCLC
# [24] = system: 786-0 renal
# [25] = system: MDA-MB-435
# [26] = system: UACC-257 melanoma
# [27] = system: SF-295 CNS
# [28] = system: SNB-19 CNS
# [29] = system: CAKI-1 renal
# [30] = system: SK-MEL-5 melanoma
# [31] = system: SR leukemia
# [32] = system: NCI-H522 lung
# [33] = system: NCI-H226 lung
# [34] = system: SN12C renal
# [35] = system: HCT-15 colon
# [36] = system: HCC-2998 colon
# [37] = system: BT-549 breast
# [38] = system: CCRF-CEM leukemia
# [39] = system: A549 NSCLC
# [40] = system: OVCAR-5 ovarian
# [41] = system: SW-620 colon
# [42] = system: SK-MEL-28 melanoma
# [43] = system: HOP-62 NSCLC
# [44] = system: PC-3 prostate
# [45] = system: SNB-75 CNS
# [46] = system: LOX IMVI melanoma
# [47] = system: COLO 205 colon
# [48] = system: DU-145 prostate
# [49] = system: A498 renal
# [50] = system: MDA-N
# [51] = system: TK-10 renal
# [52] = system: U251 CNS
# [53] = system: NCI-H23 lung
# [54] = system: KM12 colon
# [55] = system: SK-MEL-2 melanoma
# [56] = system: NCI-H460 lung
# [57] = system: NCI/ADR-RES ovarian
# [58] = system: RPMI-8226 leukemia
# [59] = system: OVCAR-4 ovarian
# [60] = system: KM20L2 colon
# [61] = system: M19-MEL melanoma
# [62] = system: LXFL 529 NSCLC
# [63] = system: DMS 114 small cell lung
# [64] = system: DLD-1 colon
# [65] = system: DMS 273 small cell lung
# [66] = system: SNB-78 CNS
# [67] = system: HOP-18 NSCLC
structure (smiles),measurement,setting,value
Cc1nc(-c2ccc(Cl)cc2)cn2c1nc1ccccc12,TGI,[1],> 21.4 µM
same,TGI,[2],> 100 µM
same,TGI,[3],> 100 µM
same,TGI,[4],> 100 µM
same,TGI,[5],> 100 µM
same,TGI,[6],> 100 µM
same,TGI,[7],> 100 µM
same,TGI,[8],> 100 µM
same,TGI,[9],> 100 µM
same,TGI,[10],> 100 µM
same,TGI,[11],> 100 µM
same,TGI,[12],> 100 µM
same,TGI,[13],> 100 µM
same,TGI,[14],> 100 µM
same,TGI,[15],> 100 µM
same,TGI,[16],> 100 µM
same,TGI,[17],> 100 µM
same,TGI,[18],> 100 µM
same,TGI,[19],> 100 µM
same,TGI,[20],> 100 µM
same,TGI,[21],> 31.6 µM
same,TGI,[22],> 100 µM
same,TGI,[23],> 100 µM
same,TGI,[24],> 100 µM
same,TGI,[25],> 100 µM
same,TGI,[26],> 100 µM
same,TGI,[27],> 100 µM
same,TGI,[28],> 100 µM
same,TGI,[29],> 100 µM
same,TGI,[30],> 100 µM
same,TGI,[31],> 100 µM
same,TGI,[32],> 100 µM
same,TGI,[33],> 100 µM
same,TGI,[34],> 100 µM
same,TGI,[35],> 100 µM
same,TGI,[36],> 100 µM
same,TGI,[37],> 100 µM
same,TGI,[38],> 31.6 µM
same,TGI,[39],> 100 µM
same,TGI,[40],> 100 µM
same,TGI,[41],> 100 µM
same,TGI,[42],> 100 µM
same,TGI,[43],> 100 µM
same,TGI,[44],> 100 µM
same,TGI,[45],> 100 µM
same,TGI,[46],> 100 µM
same,TGI,[47],> 100 µM
same,TGI,[48],> 100 µM
same,TGI,[49],> 100 µM
same,TGI,[50],> 100 µM
same,TGI,[51],> 100 µM
same,TGI,[52],> 100 µM
same,TGI,[53],> 100 µM
same,TGI,[54],> 100 µM
same,TGI,[55],> 100 µM
same,TGI,[56],> 100 µM
same,TGI,[57],> 100 µM
same,TGI,[58],> 100 µM
same,TGI,[59],> 100 µM
Cc1cc(C(=O)NCCN(C)C)c2nc3ccccc3nc2c1,TGI,[2],9.8 µM
same,TGI,[3],19.7 µM
same,TGI,[4],19.1 µM
same,TGI,[6],> 59.6 µM
same,TGI,[60],15.1 µM
same,TGI,[61],13.6 µM
same,TGI,[8],40.4 µM
same,TGI,[9],> 33.5 µM
same,TGI,[10],16.3 µM
same,TGI,[13],> 29.5 µM
same,TGI,[14],5.97 µM
same,TGI,[16],13.8 µM
same,TGI,[17],18.7 µM
same,TGI,[62],> 46.3 µM
same,TGI,[18],> 51 µM
same,TGI,[19],> 46 µM
same,TGI,[20],19.4 µM
same,TGI,[21],> 100 µM
same,TGI,[22],> 76.6 µM
same,TGI,[23],43.5 µM
same,TGI,[24],> 61.9 µM
same,TGI,[26],17.2 µM
same,TGI,[27],> 27.8 µM
same,TGI,[28],73.5 µM
same,TGI,[29],> 46.5 µM
same,TGI,[30],> 41.6 µM
same,TGI,[31],> 100 µM
same,TGI,[32],> 100 µM
same,TGI,[33],14.3 µM
same,TGI,[34],43.7 µM
same,TGI,[35],27.6 µM
same,TGI,[36],35.2 µM
same,TGI,[39],> 58.7 µM
same,TGI,[40],15.2 µM
same,TGI,[41],> 37.4 µM
same,TGI,[42],16.1 µM
same,TGI,[63],14.4 µM
same,TGI,[43],10.4 µM
same,TGI,[45],48.3 µM
same,TGI,[64],48.9 µM
same,TGI,[46],9.17 µM
same,TGI,[47],> 37.1 µM
same,TGI,[49],16.4 µM
same,TGI,[65],> 100 µM
same,TGI,[51],> 59.1 µM
same,TGI,[52],33.3 µM
same,TGI,[53],23.6 µM
same,TGI,[66],47.2 µM
same,TGI,[54],23.8 µM
same,TGI,[55],17.2 µM
same,TGI,[67],> 88.8 µM
same,TGI,[58],41.2 µM
same,TGI,[59],19.5 µM
COc1ccc(CNc2cnc3cc(N)ccc3n2)cc1OC,TGI,[2],> 100 µM
same,TGI,[4],> 100 µM
same,TGI,[5],> 100 µM
same,TGI,[6],> 100 µM
same,TGI,[61],> 100 µM
same,TGI,[8],> 100 µM
same,TGI,[9],> 100 µM
same,TGI,[10],> 100 µM
same,TGI,[14],> 100 µM
same,TGI,[16],> 100 µM
same,TGI,[18],> 100 µM
same,TGI,[20],> 100 µM
same,TGI,[21],> 100 µM
same,TGI,[22],> 100 µM
same,TGI,[23],> 100 µM
same,TGI,[24],> 100 µM
same,TGI,[26],> 100 µM
same,TGI,[27],> 100 µM
same,TGI,[28],> 100 µM
same,TGI,[29],> 100 µM
same,TGI,[30],> 100 µM
same,TGI,[31],> 100 µM
same,TGI,[32],> 100 µM
same,TGI,[33],> 100 µM
same,TGI,[34],> 100 µM
same,TGI,[35],> 100 µM
same,TGI,[36],> 100 µM
same,TGI,[38],> 100 µM
same,TGI,[39],> 100 µM
same,TGI,[41],> 100 µM
same,TGI,[42],> 100 µM
same,TGI,[63],> 100 µM
same,TGI,[43],> 100 µM
same,TGI,[45],> 100 µM
same,TGI,[64],> 100 µM
same,TGI,[46],> 100 µM
same,TGI,[47],> 100 µM
same,TGI,[65],> 100 µM
same,TGI,[51],> 100 µM
same,TGI,[54],> 100 µM
same,TGI,[55],> 100 µM
same,TGI,[56],> 100 µM
same,TGI,[58],> 100 µM
same,TGI,[59],> 100 µM
O=C(NC(Cc1c[nH]c2ccccc12)C(=O)O)/C(=C/c1ccccc1)NC(=O)c1ccccc1 (stereo not given),TGI,[1],> 100 µM
same,TGI,[2],> 100 µM
same,TGI,[3],> 100 µM
same,TGI,[4],> 100 µM
same,TGI,[5],> 100 µM
same,TGI,[6],> 100 µM
same,TGI,[7],> 100 µM
same,TGI,[8],> 100 µM
same,TGI,[9],> 100 µM
same,TGI,[10],> 100 µM
same,TGI,[11],> 100 µM
same,TGI,[12],94.8 µM
same,TGI,[13],> 100 µM
same,TGI,[14],> 100 µM
same,TGI,[15],> 100 µM
same,TGI,[16],> 100 µM
same,TGI,[17],> 100 µM
same,TGI,[18],> 100 µM
same,TGI,[19],> 100 µM
same,TGI,[20],> 100 µM
same,TGI,[21],> 100 µM
same,TGI,[22],> 100 µM
same,TGI,[23],> 100 µM
same,TGI,[24],> 100 µM
same,TGI,[25],> 100 µM
same,TGI,[26],> 100 µM
same,TGI,[27],> 100 µM
same,TGI,[28],> 100 µM
same,TGI,[29],> 100 µM
same,TGI,[30],> 100 µM
same,TGI,[31],> 100 µM
same,TGI,[32],> 88.7 µM
same,TGI,[33],> 100 µM
same,TGI,[34],> 100 µM
same,TGI,[35],> 100 µM
same,TGI,[36],> 100 µM
same,TGI,[37],> 100 µM
same,TGI,[38],> 100 µM
same,TGI,[39],> 100 µM
same,TGI,[40],> 100 µM
same,TGI,[41],> 100 µM
same,TGI,[42],> 100 µM
same,TGI,[43],> 100 µM
same,TGI,[44],> 100 µM
same,TGI,[45],> 100 µM
same,TGI,[46],> 100 µM
same,TGI,[47],> 100 µM
same,TGI,[48],> 100 µM
same,TGI,[49],> 100 µM
same,TGI,[50],> 100 µM
same,TGI,[51],> 100 µM
same,TGI,[52],> 100 µM
same,TGI,[53],> 100 µM
same,TGI,[54],> 100 µM
same,TGI,[55],> 100 µM
same,TGI,[56],> 100 µM
same,TGI,[57],> 100 µM
same,TGI,[58],> 100 µM
same,TGI,[59],> 100 µM
